# Calls of active or inactive are those of the source. The calls are words filed in the database; no cut-off is given here.
# Legend:
# [1] = biological target: Mitogen-activated protein kinase 10 (Homo sapiens) (UniProt P53779); assay: Inhibition of JNK3 (unknown origin) at 1 uM
# [2] = biological target: MAP kinase-activated protein kinase 2 (Homo sapiens) (UniProt P49137); assay: Inhibition of MAPKAPK2 (unknown origin) at 1 uM
# [3] = biological target: Serine/threonine-protein kinase 38-like (Homo sapiens) (UniProt Q9Y2H1); assay: Inhibition of STK38L (unknown origin) at 1 uM
# [4] = Metabolic stability in rat liver microsomes assessed as rate constant; format: ADME, Microsome
# [5] = Apparent permeability across apical to basolateral side in human Caco-2 cells; format: ADME, cell-based
# [6] = biological target: Aurora kinase C (Homo sapiens) (UniProt Q9UQB9); assay: Inhibition of Aurora C (unknown origin) at 1 uM
# [7] = biological target: Serine/threonine-protein kinase Nek7 (Homo sapiens) (UniProt Q8TDX7); assay: Inhibition of NEK7 (unknown origin) at 1 uM
# [8] = biological target: Casein kinase I isoform delta (Homo sapiens) (UniProt P48730); assay: Inhibition of CK1D (unknown origin) at 1 uM
# [9] = biological target: Mitogen-activated protein kinase kinase kinase kinase 4 (Homo sapiens) (UniProt O95819); assay: Inhibition of HGK (unknown origin) at 1 uM
# [10] = biological target: Mitogen-activated protein kinase kinase kinase 6 (Homo sapiens) (UniProt O95382); assay: Inhibition of MEKK6 (unknown origin) at 1 uM
# Mitogen-activated protein kinase kinase kinase 6 (Homo sapiens), sequence (O95382 whole entry): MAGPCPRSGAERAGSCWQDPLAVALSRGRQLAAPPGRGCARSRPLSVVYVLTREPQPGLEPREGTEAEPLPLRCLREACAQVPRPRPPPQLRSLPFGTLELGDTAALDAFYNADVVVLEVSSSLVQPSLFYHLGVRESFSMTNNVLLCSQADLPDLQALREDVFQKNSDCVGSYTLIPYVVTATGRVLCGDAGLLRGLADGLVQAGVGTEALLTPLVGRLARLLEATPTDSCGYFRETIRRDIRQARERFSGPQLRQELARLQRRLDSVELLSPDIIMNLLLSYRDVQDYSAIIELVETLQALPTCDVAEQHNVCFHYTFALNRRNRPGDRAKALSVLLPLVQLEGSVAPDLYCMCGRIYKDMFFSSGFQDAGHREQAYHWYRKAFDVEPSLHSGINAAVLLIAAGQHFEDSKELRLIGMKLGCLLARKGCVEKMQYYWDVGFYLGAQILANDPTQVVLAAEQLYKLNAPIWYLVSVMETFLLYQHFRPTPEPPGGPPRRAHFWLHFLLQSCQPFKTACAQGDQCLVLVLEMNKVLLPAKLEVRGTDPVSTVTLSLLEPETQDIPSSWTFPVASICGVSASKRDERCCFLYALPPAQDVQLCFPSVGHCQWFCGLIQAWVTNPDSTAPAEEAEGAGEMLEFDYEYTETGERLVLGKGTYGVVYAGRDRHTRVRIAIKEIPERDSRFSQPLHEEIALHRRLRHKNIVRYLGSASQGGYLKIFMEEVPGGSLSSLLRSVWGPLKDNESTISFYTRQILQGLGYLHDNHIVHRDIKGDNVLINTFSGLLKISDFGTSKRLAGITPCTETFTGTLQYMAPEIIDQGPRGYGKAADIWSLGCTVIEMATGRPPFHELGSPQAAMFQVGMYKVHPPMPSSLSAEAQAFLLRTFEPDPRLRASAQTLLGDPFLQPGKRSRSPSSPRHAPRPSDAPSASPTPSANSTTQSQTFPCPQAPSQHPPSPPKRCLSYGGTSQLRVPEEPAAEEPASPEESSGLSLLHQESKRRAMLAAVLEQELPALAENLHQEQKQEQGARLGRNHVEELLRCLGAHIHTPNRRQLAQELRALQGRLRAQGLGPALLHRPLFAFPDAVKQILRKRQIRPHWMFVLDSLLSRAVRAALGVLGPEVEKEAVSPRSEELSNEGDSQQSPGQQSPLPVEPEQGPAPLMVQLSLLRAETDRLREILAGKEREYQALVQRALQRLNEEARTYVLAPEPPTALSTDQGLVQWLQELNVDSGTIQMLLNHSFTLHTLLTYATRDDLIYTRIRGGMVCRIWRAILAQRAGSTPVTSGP
# [11] = biological target: CDK17/Cyclin-Y (Homo sapiens) (UniProt Q00537+Q8ND76); assay: Inhibition of CDK17/cyclin-Y (unknown origin) at 1 uM; format: protein-complex assay
# [12] = biological target: NT-3 growth factor receptor (Homo sapiens) (UniProt Q16288); assay: Inhibition of TRKC (unknown origin) at 1 uM
# [13] = biological target: Casein kinase II subunit alpha (Homo sapiens) (UniProt P68400); assay: Inhibition of CK2A (unknown origin) at 1 uM
# [14] = biological target: Serine/threonine-protein kinase B-raf (Homo sapiens) (UniProt P15056); assay: Inhibition of BRAF (unknown origin) at 1 uM
# [15] = Protein binding in monkey plasma by equilibrium dialysis by equilibrium dialysis; format: ADME, cell-free, Macaca mulatta; details: rhesus monkey, read-out: PPB (converted)
# [16] = biological target: RAC-alpha serine/threonine-protein kinase (Homo sapiens) (UniProt P31749); assay: Inhibition of AKT1 (unknown origin) at 1 uM
# RAC-alpha serine/threonine-protein kinase (Homo sapiens), sequence (P31749 whole entry): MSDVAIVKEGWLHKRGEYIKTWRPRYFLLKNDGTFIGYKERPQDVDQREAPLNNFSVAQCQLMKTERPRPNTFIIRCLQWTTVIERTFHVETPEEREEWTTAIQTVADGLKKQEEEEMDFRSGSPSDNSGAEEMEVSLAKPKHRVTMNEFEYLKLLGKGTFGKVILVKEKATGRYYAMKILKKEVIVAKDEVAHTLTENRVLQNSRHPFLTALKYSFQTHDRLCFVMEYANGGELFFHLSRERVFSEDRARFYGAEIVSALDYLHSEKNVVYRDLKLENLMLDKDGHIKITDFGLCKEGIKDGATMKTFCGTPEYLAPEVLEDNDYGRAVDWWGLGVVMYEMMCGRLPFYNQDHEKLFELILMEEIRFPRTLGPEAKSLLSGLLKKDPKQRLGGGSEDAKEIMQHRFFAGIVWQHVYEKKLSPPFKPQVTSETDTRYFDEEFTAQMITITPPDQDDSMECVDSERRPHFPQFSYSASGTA
# [17] = biological target: Ephrin type-B receptor 1 (Homo sapiens) (UniProt P54762); assay: Inhibition of EPHB1 (unknown origin) at 1 uM
# [18] = Clearance in rat liver microsomes; format: ADME, Microsome; details: read-out: CLH
# [19] = biological target: Mitogen-activated protein kinase kinase kinase 8 (Homo sapiens) (UniProt P41279); assay: Inhibition of COT1 (unknown origin) at 1 uM
# [20] = biological target: Serine/threonine-protein kinase 32B (Homo sapiens) (UniProt Q9NY57); assay: Inhibition of STK32B (unknown origin) at 1 uM
# [21] = biological target: Serine/threonine-protein kinase PAK 2 (Homo sapiens) (UniProt Q13177); assay: Inhibition of PAK2 (unknown origin) at 1 uM
# [22] = biological target: Serine/threonine-protein kinase LATS1 (Homo sapiens) (UniProt O95835); assay: Inhibition of LATS1 (unknown origin) at 1 uM
# Mus musculus [23] = assay: In vivo inhibition of IDO2 in BALB/c mouse xenografted with human HCT-116 cells assessed as suppression of IDO2 expression in tumor by immunohistochemical assay; format: functional, organism-based
# [24] = biological target: Ribosomal protein S6 kinase alpha-4 (Homo sapiens) (UniProt O75676); assay: Inhibition of MSK2 (unknown origin) at 1 uM
# [25] = biological target: Serine/threonine-protein kinase TAO3 (Homo sapiens) (UniProt Q9H2K8); assay: Inhibition of TAOK3 (unknown origin) at 1 uM
# [26] = biological target: Dual serine/threonine and tyrosine protein kinase (Homo sapiens) (UniProt Q6XUX3); assay: Inhibition of RIPK5 (unknown origin) at 1 uM
# Dual serine/threonine and tyrosine protein kinase (Homo sapiens), sequence (Q6XUX3 whole entry): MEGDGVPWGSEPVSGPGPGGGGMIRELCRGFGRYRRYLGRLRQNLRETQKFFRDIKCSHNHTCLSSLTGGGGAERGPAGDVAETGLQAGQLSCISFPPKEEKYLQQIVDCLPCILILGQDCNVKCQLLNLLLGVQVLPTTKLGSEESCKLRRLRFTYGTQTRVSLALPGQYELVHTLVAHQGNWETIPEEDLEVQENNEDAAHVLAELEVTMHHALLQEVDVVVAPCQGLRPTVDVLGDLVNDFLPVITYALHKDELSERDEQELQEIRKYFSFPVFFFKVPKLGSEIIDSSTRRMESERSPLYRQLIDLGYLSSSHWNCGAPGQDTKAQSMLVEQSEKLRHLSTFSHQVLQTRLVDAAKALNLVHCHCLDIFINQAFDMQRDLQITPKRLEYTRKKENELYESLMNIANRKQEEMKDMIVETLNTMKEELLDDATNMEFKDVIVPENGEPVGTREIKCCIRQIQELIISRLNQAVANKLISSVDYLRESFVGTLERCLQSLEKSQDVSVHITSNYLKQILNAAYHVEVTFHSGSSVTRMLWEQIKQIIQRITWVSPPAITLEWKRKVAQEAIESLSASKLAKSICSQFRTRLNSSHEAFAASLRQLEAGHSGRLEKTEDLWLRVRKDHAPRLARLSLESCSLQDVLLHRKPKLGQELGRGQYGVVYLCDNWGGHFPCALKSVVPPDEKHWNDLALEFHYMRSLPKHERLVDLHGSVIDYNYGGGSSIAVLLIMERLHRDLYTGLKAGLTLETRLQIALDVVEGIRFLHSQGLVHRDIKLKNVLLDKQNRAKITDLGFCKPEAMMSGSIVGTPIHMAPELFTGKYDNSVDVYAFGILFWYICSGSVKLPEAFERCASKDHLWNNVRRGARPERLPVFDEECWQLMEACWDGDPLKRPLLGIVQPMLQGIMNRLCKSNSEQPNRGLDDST
# [27] = biological target: Myosin light chain kinase (Homo sapiens) (UniProt Q32MK0); assay: Inhibition of MYLK3 (unknown origin) at 1 uM
# Myosin light chain kinase (Homo sapiens), sequence (Q32MK0 whole entry): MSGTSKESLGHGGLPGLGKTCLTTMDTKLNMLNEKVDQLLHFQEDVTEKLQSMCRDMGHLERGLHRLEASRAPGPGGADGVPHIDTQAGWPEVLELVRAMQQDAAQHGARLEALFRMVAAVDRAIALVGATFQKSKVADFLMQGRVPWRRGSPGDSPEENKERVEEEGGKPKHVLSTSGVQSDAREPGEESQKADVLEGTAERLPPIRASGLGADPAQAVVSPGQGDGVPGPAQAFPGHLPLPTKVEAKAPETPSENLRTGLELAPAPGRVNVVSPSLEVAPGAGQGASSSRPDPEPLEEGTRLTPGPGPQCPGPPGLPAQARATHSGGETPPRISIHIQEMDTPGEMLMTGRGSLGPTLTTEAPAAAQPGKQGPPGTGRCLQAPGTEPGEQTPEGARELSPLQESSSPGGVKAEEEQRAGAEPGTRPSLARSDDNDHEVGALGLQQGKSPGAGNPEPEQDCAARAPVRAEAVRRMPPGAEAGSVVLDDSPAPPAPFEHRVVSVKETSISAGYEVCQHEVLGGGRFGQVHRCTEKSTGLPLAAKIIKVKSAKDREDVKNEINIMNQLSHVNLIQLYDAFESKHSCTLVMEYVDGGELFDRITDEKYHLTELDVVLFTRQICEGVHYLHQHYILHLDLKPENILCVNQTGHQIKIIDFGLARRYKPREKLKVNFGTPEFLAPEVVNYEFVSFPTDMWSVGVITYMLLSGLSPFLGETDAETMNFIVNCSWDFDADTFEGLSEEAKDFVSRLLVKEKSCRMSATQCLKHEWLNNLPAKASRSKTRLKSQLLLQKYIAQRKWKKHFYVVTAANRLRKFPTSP
# [28] = biological target: Serine/threonine-protein kinase Nek9 (Homo sapiens) (UniProt Q8TD19); assay: Inhibition of NEK9 (unknown origin) at 1 uM
# Serine/threonine-protein kinase Nek9 (Homo sapiens), sequence (Q8TD19 whole entry): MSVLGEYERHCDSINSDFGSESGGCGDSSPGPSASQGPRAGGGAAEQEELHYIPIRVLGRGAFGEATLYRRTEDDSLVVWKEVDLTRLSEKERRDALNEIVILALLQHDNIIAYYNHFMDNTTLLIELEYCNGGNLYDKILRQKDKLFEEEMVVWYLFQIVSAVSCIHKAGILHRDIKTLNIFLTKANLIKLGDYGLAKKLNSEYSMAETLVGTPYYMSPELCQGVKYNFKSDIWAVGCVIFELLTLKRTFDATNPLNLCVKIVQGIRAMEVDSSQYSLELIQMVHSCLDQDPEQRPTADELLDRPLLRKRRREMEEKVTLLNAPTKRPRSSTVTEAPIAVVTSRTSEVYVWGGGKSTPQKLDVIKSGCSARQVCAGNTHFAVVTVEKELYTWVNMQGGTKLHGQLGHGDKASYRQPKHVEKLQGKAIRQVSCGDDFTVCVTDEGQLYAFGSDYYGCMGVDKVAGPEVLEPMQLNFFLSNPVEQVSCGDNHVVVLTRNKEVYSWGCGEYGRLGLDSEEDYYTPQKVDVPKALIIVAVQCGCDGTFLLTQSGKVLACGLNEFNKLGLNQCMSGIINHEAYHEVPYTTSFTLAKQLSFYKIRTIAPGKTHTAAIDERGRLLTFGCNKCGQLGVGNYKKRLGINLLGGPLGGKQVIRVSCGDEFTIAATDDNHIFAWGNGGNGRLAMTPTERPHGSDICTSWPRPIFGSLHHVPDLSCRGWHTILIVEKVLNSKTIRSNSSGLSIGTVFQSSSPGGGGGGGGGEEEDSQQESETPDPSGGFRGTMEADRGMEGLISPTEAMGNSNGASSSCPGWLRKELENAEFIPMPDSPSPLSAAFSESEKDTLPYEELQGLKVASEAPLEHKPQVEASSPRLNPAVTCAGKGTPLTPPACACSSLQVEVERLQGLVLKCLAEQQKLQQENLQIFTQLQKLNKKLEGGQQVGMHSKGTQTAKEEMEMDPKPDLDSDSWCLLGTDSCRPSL
# [29] = biological target: Activin receptor type-1-like (Homo sapiens) (UniProt P37023); assay: Inhibition of ALK1 (unknown origin) at 1 uM
# [30] = biological target: Serine/threonine-protein kinase pim-1 (Homo sapiens) (UniProt P11309); assay: Inhibition of PIM1 (unknown origin) at 1 uM
# [31] = Intrinsic clearance in human liver microsomes; format: ADME, Microsome; details: read-out: CLH
# [32] = biological target: LIM domain kinase 1 (Homo sapiens) (UniProt P53667); assay: Inhibition of LIMK1 (unknown origin) at 1 uM
# [33] = biological target: Ribosomal protein S6 kinase beta-1 (Homo sapiens) (UniProt P23443); assay: Inhibition of p70S6K (unknown origin) at 1 uM
# [34] = biological target: Ribosomal protein S6 kinase beta-2 (Homo sapiens) (UniProt Q9UBS0); assay: Inhibition of p70S6Kb (unknown origin) at 1 uM
# [35] = biological target: Megakaryocyte-associated tyrosine-protein kinase (Homo sapiens) (UniProt P42679); assay: Inhibition of CTK (unknown origin) at 1 uM
# [36] = biological target: Tau-tubulin kinase 2 (Homo sapiens) (UniProt Q6IQ55); assay: Inhibition of TTBK2 (unknown origin) at 1 uM
# HCT-116 = assay: Antitumor immunity in BALB/c mouse xenografted with human HCT-116 cells assessed as induction of apoptosis of CD4+ T-lymphocytes in spleen by propidium iodide staining based flow cytometry analysis (reference value: 33.9 %); format: functional
# [37] = biological target: Serine/threonine-protein kinase ICK (Homo sapiens) (UniProt Q9UPZ9); assay: Inhibition of LCK2 (unknown origin) at 1 uM
# [38] = biological target: Protein kinase C gamma type (Homo sapiens) (UniProt P05129); assay: Inhibition of PKCgamma (unknown origin)at 1 uM
# Mus musculus [39] = assay: In vivo inhibition of IDO1/IDO2 in BALB/c mouse xenografted with human HCT-116 cells assessed as downregulation of Foxp3 mRNA expression in tumor by quantitative RT-PCR analysis; format: functional, organism-based
# [40] = Half life in dog liver microsomes assessed as rate constant; format: ADME, Canis lupus familiaris, Microsome
# [41] = biological target: Dual specificity tyrosine-phosphorylation-regulated kinase 3 (Homo sapiens) (UniProt O43781); assay: Inhibition of DYRK3 (unknown origin) at 1 uM
# Dual specificity tyrosine-phosphorylation-regulated kinase 3 (Homo sapiens), sequence (O43781 whole entry): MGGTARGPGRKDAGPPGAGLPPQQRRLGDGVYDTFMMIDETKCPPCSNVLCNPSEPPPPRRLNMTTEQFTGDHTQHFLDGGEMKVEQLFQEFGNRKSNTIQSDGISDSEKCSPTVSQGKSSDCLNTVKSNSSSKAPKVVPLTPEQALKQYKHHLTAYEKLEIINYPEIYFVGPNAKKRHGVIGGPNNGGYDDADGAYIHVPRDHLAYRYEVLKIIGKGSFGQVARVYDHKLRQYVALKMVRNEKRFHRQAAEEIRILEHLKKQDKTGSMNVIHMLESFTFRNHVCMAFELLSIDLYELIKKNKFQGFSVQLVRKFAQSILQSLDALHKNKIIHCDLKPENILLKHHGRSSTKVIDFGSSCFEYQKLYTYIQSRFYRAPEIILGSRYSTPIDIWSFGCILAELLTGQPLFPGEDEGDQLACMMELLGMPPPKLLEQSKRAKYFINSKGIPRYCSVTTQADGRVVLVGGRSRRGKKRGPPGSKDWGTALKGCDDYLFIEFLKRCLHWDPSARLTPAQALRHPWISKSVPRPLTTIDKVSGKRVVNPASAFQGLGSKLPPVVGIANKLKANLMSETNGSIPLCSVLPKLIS
# [42] = biological target: MAP/microtubule affinity-regulating kinase 4 (Homo sapiens) (UniProt Q96L34); assay: Inhibition of MARK4 (unknown origin) at 1 uM
# [43] = biological target: Ephrin type-A receptor 8 (Homo sapiens) (UniProt P29322); assay: Inhibition of EPHA8 (unknown origin) at 1 uM
# [44] = biological target: CDK7/Cyclin H/MNAT1 (Homo sapiens) (UniProt P51946+P50613+P51948); assay: Inhibition of CDK7/cyclin-H/MNAT1 (unknown origin) at 1 uM; format: protein-complex assay
smiles,measurement,setting,value
OCCOCc1cn(CCNc2nonc2/C(=N/O)Nc2ccc(F)c(Br)c2)nn1,inhibition,[1],inactive
same,inhibition,[2],inactive
same,inhibition,[3],inactive
same,k el,[4],0.000545 s⁻¹
same,Papp A→B,[5],7.2 ×10⁻⁶ cm/s
same,inhibition,[6],inactive
same,inhibition,[7],inactive
same,inhibition,[8],inactive
same,inhibition,[9],inactive
same,inhibition,[10],inactive
same,inhibition,[11],inactive
same,inhibition,[12],inactive
same,inhibition,[13],inactive
same,inhibition,[14],inactive
same,fraction unbound,[15],0.0763
same,inhibition,[16],inactive
same,inhibition,[17],inactive
same,microsomal CLint,[18],65.3 µL/min/mg
same,inhibition,[19],inactive
same,inhibition,[20],inactive
same,inhibition,[21],inactive
same,inhibition,[22],inactive
same,inhibition,Mus musculus [23],Active
same,inhibition,[24],inactive
same,inhibition,[25],inactive
same,inhibition,[26],inactive
same,inhibition,[27],inactive
same,inhibition,[28],inactive
same,inhibition,[29],inactive
same,inhibition,[30],inactive
same,microsomal CLint,[31],30.1 µL/min/mg
same,inhibition,[32],inactive
same,inhibition,[33],inactive
same,inhibition,[34],inactive
same,inhibition,[35],inactive
same,inhibition,[36],inactive
same,Activity,HCT-116,15.3%
same,inhibition,[37],inactive
same,inhibition,[38],inactive
same,inhibition,Mus musculus [39],Active
same,half-life,[40],5.66 min
same,inhibition,[41],inactive
same,inhibition,[42],inactive
same,inhibition,[43],inactive
same,inhibition,[44],inactive
